Assays:
[1] = tested on: Candida krusei; test: Determination of fungal susceptibility (MIC); format: cell-based; settings: CYG medium, 2 days at 37° C., growth to 35% of control or less
Description: (§1) A panel of Candida isolates plus single isolates of the dermatophytes Microsporum canis, Trichophyton rubrum and Trichophyton mentagrophytes; Aspergillus fumigatus, and Cryptococcus neoformans were used to evaluate the activity of the test compounds in vitro. Inocula were prepared as broth cultures (yeasts) or as suspensions of fungal material made from agar slope cultures (moulds). The test compounds were pipetted from dimethylsulfoxide stock solution into water to provide a series of 10-fold dilutions. The fungal inocula were suspended in the growth medium CYG (F. C. Odds, Journal of Clinical Microbiology, 29, 2735-2740, 1991) at approximately 50,000 colony-forming units (CFU) per ml and added to the aqueous test drugs. The cultures were set up in the 96 wells of plastic microdilution plates and they were incubated for 2 days at 37° C. (Candida spp.) or for 5 days at 30° C. (other fungi). Growth in the microcultures was measured by their optical density (OD) measured at a wavelength of 405 nm. The OD for cultures with test compounds was calculated as a percentage of the OD for control cultures, i.e. the OD for cultures without test compounds. Inhibition of growth to 35% of control or less was recorded as significant inhibition.
(§2) Minimal inhibitory concentration (MIC; in 10^−6 M) of some of the compounds of formula (I) for Candida glabrata, Candida krusei, Candida parapsilosis, Candida albicans, Candida kefyr, Candida tropicalis, Microsporum canis, Trichophyton rubrum, Trichophyton mentagrophytes, Cryptococcus neoformans and Aspergillus fumigatus are listed in table 3.

[2] = tested on: Cryptococcus neoformans; test: Determination of fungal susceptibility (MIC); format: cell-based; settings: CYG medium, 5 days at 30° C., growth to 35% of control or less
Description: as §1, §2

[3] = tested on: Candida glabrata; test: Determination of fungal susceptibility (MIC); format: cell-based; settings: CYG medium, 2 days at 37° C., growth to 35% of control or less
Description: as §1, §2

[4] = tested on: Candida parapsilosis; test: Determination of fungal susceptibility (MIC); format: cell-based; settings: CYG medium, 2 days at 37° C., growth to 35% of control or less
Description: as §1, §2

[5] = tested on: Candida albicans; test: Determination of fungal susceptibility (MIC); format: cell-based; settings: CYG medium, 2 days at 37° C., growth to 35% of control or less
Description: as §1, §2

[6] = tested on: Trichophyton mentagrophytes; test: Determination of fungal susceptibility (MIC); format: cell-based; settings: CYG medium, 5 days at 30° C., growth to 35% of control or less
Description: as §1, §2

[7] = tested on: Aspergillus fumigatus; test: Determination of fungal susceptibility (MIC); format: cell-based; settings: CYG medium, 5 days at 30° C., growth to 35% of control or less
Description: as §1, §2

[8] = tested on: Candida tropicalis; test: Determination of fungal susceptibility (MIC); format: cell-based; settings: CYG medium, 2 days at 37° C., growth to 35% of control or less
Description: as §1, §2

[9] = tested on: Microsporum canis; test: Determination of fungal susceptibility (MIC); format: cell-based; settings: CYG medium, 5 days at 30° C., growth to 35% of control or less
Description: as §1, §2

[10] = tested on: Trichophyton rubrum; test: Determination of fungal susceptibility (MIC); format: cell-based; settings: CYG medium, 5 days at 30° C., growth to 35% of control or less
Description: as §1, §2

[11] = tested on: Candida kefyr; test: Determination of fungal susceptibility (MIC); format: cell-based; settings: CYG medium, 2 days at 37° C., growth to 35% of control or less
Description: as §1, §2

[12] = Water solubility in citric acid/Na2HPO4 buffered water; format: physicochemical; settings: water buffered with citric acid/Na2HPO4, aqueous buffer, thermodynamic from solid, UV spectroscopy
Description: An excess of compound was added to water buffered with 0.1 M citric acid and 0.2 M Na2HPO4 in a ratio of 61.5/38.5 (pH=4). The mixture was shaken during 1 day at room temperature. The precipitate was filtered off.

| Structure (SMILES) | MIC values in 10^−6 M [1] | MIC values in 10^−6 M [2] | MIC values in 10^−6 M [3] | MIC values in 10^−6 M [4] | MIC values in 10^−6 M [5] | MIC values in 10^−6 M [6] | MIC values in 10^−6 M [7] | MIC values in 10^−6 M [8] | MIC values in 10^−6 M [9] | MIC values in 10^−6 M [10] | MIC values in 10^−6 M [11] | solubility at 1 day ([12]; pH 3.65, shaken 1 day at room temperature) [µg/mL] | solubility at 1 day ([12]; pH 4.05, shaken 1 day at room temperature) [µg/mL] |
| --- | --- | --- | --- | --- | --- | --- | --- | --- | --- | --- | --- | --- | --- |
| CC(OCC(N)Cc1ccccc1)C(C)n1ncn(-c2ccc(N3CCN(c4ccc(OCC5COC(Cn6cncn6)(c6ccc(F)cc6F)O5)cc4)CC3)cc2)c1=O (stereo not drawn) [Compound 3] | 1 10^−6 M | 0.1 10^−6 M | 1 10^−6 M | <0.01 10^−6 M | <0.01 10^−6 M | 1 10^−6 M | 1 10^−6 M | 0.1 10^−6 M | 1 10^−6 M | 0.1 10^−6 M | <0.01 10^−6 M | > 7090 |  |
| CCC(COCCN(CC)CC)n1ncn(-c2ccc(N3CCN(c4ccc(OCC5COC(Cn6cncn6)(c6ccc(F)cc6F)O5)cc4)CC3)cc2)c1=O (stereo not drawn) [Compound 5] | 10 10^−6 M | 1 10^−6 M | 10 10^−6 M | <0.1 10^−6 M | <0.1 10^−6 M | 10 10^−6 M | 1 10^−6 M | 1 10^−6 M | <0.1 10^−6 M | 10 10^−6 M | <0.1 10^−6 M |  | > 12000 |
